Experimental data published in ChEMBL document CHEMBL3871297, “Squarate-based carbocyclic nucleosides: Syntheses, computational analyses and anticancer/antiviral evaluation” (2017).

Columns and labels:
Assay type in all cases: functional
[1] = Cytotoxicity against human NCI-H522 cells assessed as cell growth at 10 uM after 2 days by SRB assay relative to control; details: NCI-H522, 48 h, read-out: Activity
[2] = Cytotoxicity against human KM12 cells assessed as cell growth at 10 uM after 2 days by SRB assay relative to control; details: KM12, 48 h, read-out: Activity
[3] = Cytotoxicity against human OVCAR8 cells assessed as cell growth at 10 uM after 2 days by SRB assay relative to control; details: OVCAR-8, 48 h, read-out: Activity
[4] = Cytotoxicity against human NCI-H460 cells assessed as cell growth at 10 uM after 2 days by SRB assay relative to control; details: NCI-H460, 48 h, read-out: Activity
[5] = Cytotoxicity against human NCI/ADR-RES cells assessed as cell growth at 10 uM after 2 days by SRB assay relative to control; details: 48 h, read-out: Activity
[6] = Cytotoxicity against human UACC257 cells assessed as cell growth at 10 uM after 2 days by SRB assay relative to control; details: UACC-257, 48 h, read-out: Activity
[7] = Cytotoxicity against human HCC2998 cells assessed as cell growth at 10 uM after 2 days by SRB assay relative to control; details: HCC 2998, 48 h, read-out: Activity
[8] = Cytotoxicity against human SK-MEL-5 cells assessed as cell growth at 10 uM after 2 days by SRB assay relative to control; details: SK-MEL-5, 48 h, read-out: Activity
[9] = Cytotoxicity against human HOP62 cells assessed as cell growth at 10 uM after 2 days by SRB assay relative to control; details: HOP-62, 48 h, read-out: Activity
[10] = Cytotoxicity against human EKVX cells assessed as cell growth at 10 uM after 2 days by SRB assay relative to control; details: 48 h, read-out: Activity
[11] = Cytotoxicity against human A498 cells assessed as cell growth at 10 uM after 2 days by SRB assay relative to control; details: A498, 48 h, read-out: Activity
[12] = Cytotoxicity against human BT549 cells assessed as cell growth at 10 uM after 2 days by SRB assay relative to control; details: BT-549, 48 h, read-out: Activity
[13] = Cytotoxicity against human ACHN cells assessed as cell growth at 10 uM after 2 days by SRB assay relative to control; details: 48 h, read-out: Activity
[14] = Cytotoxicity against human NCI-H23 cells assessed as cell growth at 10 uM after 2 days by SRB assay relative to control; details: NCI-H23, 48 h, read-out: Activity
[15] = Cytotoxicity against human DU145 cells assessed as cell growth at 10 uM after 2 days by SRB assay relative to control; details: DU-145, 48 h, read-out: Activity
[16] = Cytotoxicity against human OVCAR3 cells assessed as cell growth at 10 uM after 2 days by SRB assay relative to control; details: OVCAR-3, 48 h, read-out: Activity
[17] = Cytotoxicity against human HeLa cells assessed as reduction in cell viability cell at 300 uM after 24 hrs by MTT assay

| SMILES | growth at 10 µM [1] [%] | growth at 10 µM [2] [%] | growth at 10 µM [3] [%] | growth at 10 µM [4] [%] | growth at 10 µM [5] [%] | growth at 10 µM [6] [%] | growth at 10 µM [7] [%] | growth at 10 µM [8] [%] | growth at 10 µM [9] [%] | growth at 10 µM [10] [%] | growth at 10 µM [11] [%] | growth at 10 µM [12] [%] | growth at 10 µM [13] [%] | growth at 10 µM [14] [%] | growth at 10 µM [15] [%] | growth at 10 µM [16] [%] | inhibition at 300 µM [17] [%] |
| --- | --- | --- | --- | --- | --- | --- | --- | --- | --- | --- | --- | --- | --- | --- | --- | --- | --- |
| COc1c(N[C@H]2C=C[C@@H](CO)C2)c(=O)c1=O | 86.5 | 87.7 | 94.6 | 105 | 107 | 89 | 107 | 103 | 96 | 125 | 105 | 110 | 104 | 108 | 117 | 105 | – |
| O=c1c(O)c(N[C@H]2C=C[C@@H](CO)C2)c1=O | 91.6 | 116 | 107 | 114 | 116 | 100 | 106 | 106 | 101 | 129 | – | – | 108 | 107 | 120 | 122 | – |
| Nc1c(N[C@H]2C=C[C@@H](CO)C2)c(=O)c1=O | 90.1 | 122 | 92.8 | 104 | 108 | 97.7 | 107 | 104 | 96.4 | 121 | 114 | 115 | 103 | 111 | – | – | 50 |
